Counter-ions that a name gives are not always drawn. Like-named read-outs stand apart in the source and are kept apart here.
Tests used:
TT cells = assay: RET kinase cell-based proliferation assay; parameters: species or system human; settings: 192 h, read-out: RET IC50
Text: RET Kinase Cell-Based Proliferation Assay

RET kinase = RET kinase (Homo sapiens, UniProt P07949, C634W); assay: RET kinase cell-based mechanistic assay (constitutive RET kinase phosphorylation in TT cells)
Method: RET Kinase Cell-Based Mechanistic Assay
The potency of the compound of the invention was tested for its ability to inhibit constitutive RET kinase phosphorylation in cell-based assay. […] 1.0E5 TT cells/well were plated in a 96-well cell culture plate and allowed to adhere overnight. […] IC50s were fitted using GraphPad Prism to a sigmoidal dose response.

[1] = human RET kinase cell-based proliferation assay, TT cells, eight days, CellTiter-Glo, Table 4

RET kinase, sequence (P07949 29-1114 C634W): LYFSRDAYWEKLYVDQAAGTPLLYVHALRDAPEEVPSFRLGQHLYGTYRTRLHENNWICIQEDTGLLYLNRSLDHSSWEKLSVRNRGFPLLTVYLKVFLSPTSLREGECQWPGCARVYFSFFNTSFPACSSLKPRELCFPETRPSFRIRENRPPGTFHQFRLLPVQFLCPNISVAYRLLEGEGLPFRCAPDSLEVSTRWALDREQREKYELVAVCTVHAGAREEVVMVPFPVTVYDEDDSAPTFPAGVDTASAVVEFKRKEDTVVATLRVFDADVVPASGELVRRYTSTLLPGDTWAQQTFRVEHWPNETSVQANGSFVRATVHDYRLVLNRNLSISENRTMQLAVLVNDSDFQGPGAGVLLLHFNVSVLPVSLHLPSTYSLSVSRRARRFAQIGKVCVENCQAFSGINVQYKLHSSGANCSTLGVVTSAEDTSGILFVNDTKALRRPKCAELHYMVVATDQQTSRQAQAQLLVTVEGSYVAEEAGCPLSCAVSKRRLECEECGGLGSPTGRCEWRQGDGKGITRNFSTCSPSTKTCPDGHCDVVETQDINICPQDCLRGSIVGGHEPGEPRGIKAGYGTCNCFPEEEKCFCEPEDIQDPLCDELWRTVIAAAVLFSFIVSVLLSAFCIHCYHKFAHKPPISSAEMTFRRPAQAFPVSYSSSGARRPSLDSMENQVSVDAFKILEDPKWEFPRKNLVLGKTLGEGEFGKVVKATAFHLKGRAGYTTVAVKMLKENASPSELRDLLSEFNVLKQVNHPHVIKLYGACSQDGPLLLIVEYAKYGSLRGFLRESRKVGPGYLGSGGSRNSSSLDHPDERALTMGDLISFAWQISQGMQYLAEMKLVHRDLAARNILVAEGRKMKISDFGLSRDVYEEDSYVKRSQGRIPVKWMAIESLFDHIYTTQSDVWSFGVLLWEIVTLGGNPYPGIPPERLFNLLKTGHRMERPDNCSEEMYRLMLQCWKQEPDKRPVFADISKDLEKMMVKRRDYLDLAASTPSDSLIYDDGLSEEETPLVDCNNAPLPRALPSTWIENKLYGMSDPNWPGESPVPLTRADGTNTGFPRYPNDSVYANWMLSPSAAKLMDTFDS

| SMILES | IC50 (TT cells; [1]) [nM] | IC50 (RET kinase) [nM] | IC50 (TT cells; Homo sapiens, TT) [nM] |
| --- | --- | --- | --- |
| CCOc1cc(-c2ccc(CC(=O)Nc3cc(C(F)(F)F)cc(C(F)(F)F)c3)c(F)c2)c[nH]c1=O [Example 25, N-(3,5-bis(trifluoromethyl)phenyl)-2-(4-(5-ethoxy-6-oxo-1,6-dihydropyridin-3-yl)-2-fluorophenyl)acetamide] | 500 to 10000 | 100 to 500 | – |
| CCOc1cc(-c2ccc(CC(=O)Nc3cnc(C(C)(C)O)c(C(F)(F)F)c3)c(F)c2)c[nH]c1=O [Example 1, 2-(4-(5-Ethoxy-6-oxo-1,6-dihydropyridin-3-yl)-2-fluorophenyl)-N-(6-(2-hydroxypropan-2-yl)-5-(trifluoromethyl)pyridin-3-yl)acetamide] | 100 to 500 | 100 to 500 | – |
| CCOc1cc(-c2ccc(CC(=O)Nc3ccc(C#N)c(C(F)(F)F)c3)c(F)c2)c[nH]c1=O [Example 9, N-(4-Cyano-3-(trifluoro-methyl)phenyl)-2-(4-(5-ethoxy-6-oxo-1,6-dihydro-pyridin-3-yl)-2-fluorophenyl)acetamide] | 100 to 500 | 100 to 500 | – |
| CCOc1cc(-c2ccc(CC(=O)Nc3cc(C(C)(C)C(F)(F)F)on3)c(F)c2)c[nH]c1=O [Example 19, 2-(4-(5-Ethoxy-6-oxo-1,6-dihydropyridin-3-yl)-2-fluorophenyl)-N-(5-(1,1,1-trifluoro-2-methylpropan-2-yl)isoxazol-3-yl)acetamide] | < 100 | < 100 | – |
| CCOc1cc(-c2ccc(CC(=O)Nc3ccc(C(N)=O)c(C(F)(F)F)c3)c(F)c2)c[nH]c1=O [Example 23, 4-(2-(4-(5-ethoxy-6-oxo-1,6-dihydropyridin-3-yl)-2-fluorophenyl)acetamido)-2-(trifluoromethyl)benzamide] | 500 to 10000 | 500 to 10000 | – |
| CCOc1cc(-c2ccc(CC(=O)Nc3cc(-n4cnc(C)c4)cc(C(F)(F)F)c3)c(F)c2)c[nH]c1=O [Example 11, 2-(4-(5-Ethoxy-6-oxo-1,6-dihydropyridin-3-yl)-2-fluorophenyl)-N-(3-(4-methyl-1H-imidazol-1-yl)-5-(trifluoromethyl)phenyl)acetamide, Hydrochloride] | – | < 100 | 100 to 500 |
| CCOc1cc(-c2ccc(CC(=O)Nc3ccc(Cl)c(Cl)c3)c(F)c2)c[nH]c1=O [Example 18, N-(3,4-Dichlorophenyl)-2-(4-(5-ethoxy-6-oxo-1,6-dihydropyridin-3-yl)-2-fluorophenyl)acetamide] | 500 to 10000 | 500 to 10000 | – |
| CCOc1cc(-c2ccc(CC(=O)Nc3ccc(OCCO)c(C(F)(F)F)c3)c(F)c2)c[nH]c1=O [Example 13, 2-(4-(5-Ethoxy-6-oxo-1,6-dihydropyridin-3-yl)-2-fluorophenyl)-N-(4-(2-hydroxyethoxy)-3-(trifluoromethyl)phenyl)acetamide] | 100 to 500 | 100 to 500 | – |
| CCOc1cc(-c2ccc(CC(=O)Nc3ccc(Cl)c(C(F)(F)F)c3)c(F)c2)c[nH]c1=O [Example 16, N-(4-Chloro-3-(trifluoromethyl)phenyl)-2-(4-(5-ethoxy-6-oxo-1,6-dihydropyridin-3-yl)-2-fluorophenyl)acetamide] | < 100 | 100 to 500 | – |
| CCOc1cc(-c2ccc(CC(=O)Nc3ccc(CN(C)C)c(C(F)(F)F)c3)c(F)c2)c[nH]c1=O [Example 17, N-(4-((Dimethylamino)methyl)-3-(trifluoromethyl)phenyl)-2-(4-(5-ethoxy-6-oxo-1,6-dihydropyridin-3-yl)-2-fluorophenyl)acetamide, Hydrochloride] | – | < 100 | 100 to 500 |
| CCOc1cc(-c2ccc(CC(=O)Nc3ccc(CN4CCN(CC)CC4)c(C(F)(F)F)c3)c(F)c2)c[nH]c1=O [Example 21, 2-(4-(5-Ethoxy-6-oxo-1,6-dihydropyridin-3-yl)-2-fluorophenyl)-N-(4-((4-ethylpiperazin-1-yl)methyl)-3-(trifluoromethyl)phenyl)acetamide, 2 Hydrochloride] | < 100 | – | – |
| CCOc1cc(-c2ccc(CC(=O)Nc3ccc(CC(C)(C)CO)c(C(F)(F)F)c3)c(F)c2)c[nH]c1=O [Example 5, 2-(4-(5-Ethoxy-6-oxo-1,6-dihydropyridin-3-yl)-2-fluorophenyl)-N-(4-(3-hydroxy-2,2-dimethylpropyl)-3-(trifluoromethyl)phenyl)acetamide] | < 100 | < 100 | – |
| CCOc1cc(-c2ccc(CC(=O)Nc3cc(C(F)(F)F)ccc3F)c(F)c2)c[nH]c1=O [Example 26, 2-(4-(5-ethoxy-6-oxo-1,6-dihydropyridin-3-yl)-2-fluorophenyl)-N-(2-fluoro-5-(trifluoromethyl)phenyl)acetamide] | 500 to 10000 | – | – |
| CCOc1ncc(NC(=O)Cc2ccc(-c3c[nH]c(=O)c(OCC)c3)cc2F)cc1C(F)(F)F [Example 2, N-(6-Ethoxy-5-(trifluoromethyl)pyridin-3-yl)-2-(4-(5-ethoxy-6-oxo-1,6-dihydropyridin-3-yl)-2-fluorophenyl)acetamide, Hydrochloride] | – | < 100 | 100 to 500 |
| CCOc1cc(-c2ccc(CC(=O)Nc3ccc(CC(C)(C)CO)c(C(F)(F)F)c3)cc2F)c[nH]c1=O [Example 6, 2-(4-(5-Ethoxy-6-oxo-1,6-dihydropyridin-3-yl)-3-fluorophenyl)-N-(4-(3-hydroxy-2,2-dimethylpropyl)-3-(trifluoromethyl)phenyl)acetamide] | < 100 | < 100 | – |
| CCOc1cc(=O)[nH]cc1-c1ccc(CC(=O)Nc2ccc(C#N)c(C(F)(F)F)c2)cc1F [Example 7, N-(4-Cyano-3-(trifluoromethyl)phenyl)-2-(4-(4-ethoxy-6-oxo-1,6-dihydropyridin-3-yl)-3-fluorophenyl)acetamide] | 100 to 500 | 100 to 500 | – |
| CCOc1cc(-c2ccc(CC(=O)Nc3cc(C(F)(F)F)c(F)cc3F)c(F)c2)c[nH]c1=O [Example 24, N-(2,4-difluoro-5-(trifluoromethyl)phenyl)-2-(4-(5-ethoxy-6-oxo-1,6-dihydropyridin-3-yl)-2-fluorophenyl)acetamide] | 500 to 10000 | 100 to 500 | – |

From US8937071B2, “Compounds as rearranged during transfection (RET) inhibitors” (GlaxoSmithKline Intellectual Property Development Limited, priority 2013, dated 2015)
